Measurements published in publication PMC6609550, “Blockade of the forward Na^+/Ca^2+ exchanger suppresses the growth of glioblastoma cells through Ca^2+‐mediated cell death” (British Journal of Pharmacology, 2019).

Legend:
Format in all cases: cell-based, Human
U87 cells [1] = experiment: Annexin V–FITC/PI apoptosis assay of U87 cells; conditions: bepridil 25 μM 6–48 hr, CB‐DMB 3.5 μM 6–48 hr, KB‐R7943 25 μM 20 hr, BAPTA‐AM 10 μM 18 hr, CC‐930 10 μM, PD169316 10 μM
Procedure: U87 cells were seeded in six‐well plates (Corning, Corning, NY, USA) with 1 × 10^6 cells per well and treated with NCX blockers, BAPTA‐AM, or MAPK inhibitors. Drug treatment was performed by the person who is blinded to the experimental groups. After treatment, cells were harvested in 15‐ml tubes and washed with cold sterile PBS. After being centrifuged, cells were fixed with 70% ethanol […] at 4°C for at least 1 hr. For propidium iodide (PI) staining, cells were washed one time with PBS and then were treated with ribonuclease A (RNase; 100 μg·ml^−1) for 30 min. PI (10 μg·ml^−1) was added, and stained cells were kept in the dark at 4°C until analysis. The number of cells analysed for each sample was 10,000 events. FACS analysis was performed using the Coulter CytoFlexS flow cytometer (Beckman Coulter, CA, USA), and the percentage of cells in the G0/G1, S, and G2/M phases was determined using cell cycle analysis software, ModFit LT 5.0 (Verity Software House, Topsham, ME, USA). For the apoptosis assay, cells were harvested and washed twice with cold PBS and resuspended at a density of 1 × 10^6 cells·ml^−1 in 100 μl of binding buffer containing 5 μl of Annexin V–FITC and 5 μl of PI working solution (100 μg·ml^−1). After incubation at room temperature for 15 min in the dark, 400 μl of binding buffer was added to each sample. Apoptosis was analysed by Coulter CytoFlexS flow cytometer (Beckman Coulter) for at least 10,000 events, and data were analysed with the software, CyExpert 2.0 (Beckman Coulter).

reverse NCX = experiment: Whole-cell patch-clamp recording of reverse-mode NCX currents in U87 cells; conditions: reverse NCX current measured at +50 mV, mean ± SEM, n = 4, read-out: IC50, blocking reverse NCX (currents)
Procedure: Whole‐cell patch‐clamp recording was performed using a Multiclamp 700B amplifier (Molecular Devices, Foster City, CA, USA) at room temperature. Voltage protocols were provided and current recorded via a DigiData‐1550B interface (Molecular Devices) controlled by pClamp 10 Software (Molecular Devices, RRID:SCR_011323). […] Internal solution consisted of (in mM): 120 CsCl, 20 NaCl, 2 MgCl2, 13 CaCl2, 2 Na2ATP, 20 BAPTA, and 10 HEPES at a pH 7.2. […] Series resistance was compensated by 75–85%. Linear leak and residual capacitance currents were subtracted online using a P/4 protocol of the pClamp 10. For the recording of the membrane currents related to the NCX, cells were held at −50 mV and depolarized to +60 mV, and then a voltage ramp starting from +60 to −120 mV was applied for 1,000 ms before returning back to −50 mV. The reverse and forward NCX currents were measured at +50 and −110 mV holding potentials respectively (Molinaro et al., 2008; Rahman, Inman, Kiss, & Janssen, 2012; Song, Chen, & Yu, 2014). Data were filtered at 3 KHz and digitized at sampling rates of 20 KHz. For drug application, cells were perfused with a VC‐6 Six Channel Perfusion Valve Control Systems (Warner Instruments, Greenwich, CT, USA) connected to a gravity‐fed perfusion systems.
Data are expressed as mean ± SEM and analysed by Prism 7 software, La Jolla, CA (GraphPad Prism, RRID:SCR_002798). The data and statistical analysis comply with the recommendations of the British Journal of Pharmacology on experimental design and analysis in pharmacology. Concentrations of the NCX blockers (IC50) exerting half‐maximal inhibition of NCX currents were obtained by fitting the concentration–response with the equation: I/I0*100%=Bottom+Top−Bottom/1+10^((^Log^IC50−C)*n) , where I 0 and I are current amplitudes measured in control and in the presence of NCX blockers, C is the logarithm of concentration, and n is the Hill coefficient. The statistical difference between two independent groups was analysed by Student's parametric unpaired t test. And the original data of more than two groups were assessed by the parametric one‐way ANOVA followed by a Tukey's post hoc test. The data for cell viability and Western blot were usually normalized to the control group, and were thus analysed by the non‐parametric Kruskal–Wallis test followed by a Dunn's post hoc test. Differences were considered to be significant when P < .05. Post hoc tests were conducted when the F value achieved the necessary level (P < .05) and there was no significant variance inhomogeneity.
We characterized the membrane currents associated with NCX activity in glioblastoma cells using whole‐cell patch‐clamp recording. […] The NCX current in its reverse mode (Ca^2+ entry) was measured at +50, and the forward‐mode current (Ca^2+ exit) was measured at −110 mV. The Ni^2+ (10 mM) was employed to inhibit and identify the NCX currents in its either reverse or forward mode as previously reported (Maack, Ganesan, Sidor, & O'Rourke, 2005).

U87 cells [2] = experiment: Cell viability assay (Cell Counting Kit-8), U87; conditions: for IC50: 72 hr, CCK-8, mean ± SEM
Procedure: Cell viability was determined by using a Cell Counting Kit‐8 (Dojindo, Japan). Briefly, cells were harvested from flasks and plated in 96‐well cell culture plates at 5 × 10^3 per well and cultured overnight. […] Control cells were treated with cell culture medium and measured at the same time point as treatment groups. CCK‐8 solution (10 μl) was added to each well of the 96‐well plates, and the cultures were incubated for 30 min at 37°C. Absorbance at 450 nm was measured using an automatic microplate reader (Molecular Devices, San Jose, CA, USA).
Figure 2 Effect of the Na^+/Ca^2+ exchanger (NCX) blockers on viability of human glioblastoma cell lines. (a, b) Viability of adult glioblastoma cell lines (U87 and U251) after exposure to NCX blockers bepridil, KB‐R7943, SEA0400, SN‐6, or YM244769 at 0–100 μM for 72 hr. n = 5 independent tests per group. (c) Viability of paediatric glioblastoma cell line SF188 after 72‐hr incubation with the same NCX blockers at 0–100 μM. n = 5 independent tests per group. (d) For U87, U251, and SF188 cell lines, concentration of the NCX blockers required to produce half maximal inhibition (IC50: μM, mean ± SEM) of cell viability.

SMILES: CC(C)COCC(CN(Cc1ccccc1)c1ccccc1)N1CCCC1 (stereo not shown) [Bepridil, N‐benzyl‐N‐(3‐isobutoxy‐2‐pyrrolidin‐1‐yl‐propyl)aniline]
- Effect on apoptosis (Annexin V+ cells), compound alone (U87 cells [1]): time‐dependent increase of apoptotic (Annexin V^+) cells
- IC50 (reverse NCX): 15.6 ± 1.1 µM
- Effect on growth (viability) of U87 cells (U87 cells [2]; 25 μM, 48 hr): markedly suppressed growth
- IC50 (U87 cells [2]; Homo sapiens, U-87 MG): 18.6 ± 1.1 µM

SMILES: CS(=O)(=O)O.N=C(N)SCCc1ccc(OCc2ccc([N+](=O)[O-])cc2)cc1 [KB‐R7943, 2‐[4‐[(4‐nitrophenyl)methoxy]phenyl]ethyl ester carbamimidothioic acid methanesulfonate]
- Effect on apoptosis (Annexin V+ cells), compound alone (U87 cells [1]): caused G0/G1 arrest and apoptosis
- IC50 (reverse NCX): 14.3 ± 1.2 µM
- IC50 (U87 cells [2]): 26.6 ± 1.4 µM
